Experimental data taken from patent US20040044405A1, “Vascular stent or graft coated or impregnated with protein tyrosine kinase inhibitors and method of using same” (priority 2001, published 2004).

Columns and labels:
PKC = details: cited from earlier work
Porcine coronary VSMCs = experiment: Porcine coronary VSMC proliferation, BrdU incorporation ELISA after PDGF stimulation; type: cell-based; details: PDGF 20 ng/mL, STI-571, FIG. 1
Description: BrdU was added to the wells for the last 5 hours of the stimulation period.

[1] = tested on: Porcine aortic vascular endothelial cells; experiment: Porcine aortic vascular endothelial cell proliferation, BrdU incorporation ELISA after VEGF stimulation; type: cell-based; details: VEGF 20 ng/mL for 24 hours, STI-571, FIG. 2
Description: Porcine aortic vascular endothelial cells were grown to subconfluence in 96-well plates with DME media containing 10% FBS at 37° C. for 3 to 5 days. […] BrdU was added to the wells for the last 5 hours of the stimulation period. The cells were subsequently dried for 24 hours at 60° C., fixed and denatured, and BrdU incorporation determined using the Roche ELISA described in Example 1.

[2] = tested on: human coronary artery vascular smooth muscle cells; experiment: DNA synthesis in human coronary artery vascular smooth muscle cells, BrdU assay; type: cell-based; details: 10% FBS for 48 hours, FIG. 4
[3] = tested on: human coronary artery vascular smooth muscle cells; experiment: Migration of human coronary artery vascular smooth muscle cells through porous membrane in response to PDGF; type: cell-based; details: PDGF-ββ 20 ng/ml, 24 hrs, normalized to control membranes, FIG. 5
Description: Migration was assayed by counting cells that migrated through a porous membrane (20 μm diameter pores) in 24 hours in response to stimulation with platelet-derived growth factor (PDGF-pp).
The initial seed density was 4000 cells per filter (0.3 cm^2) in test media with 1% BSA and 20 ng/ml PDGF-ββ. The cells were then incubated in a humidified environment at 37° C., 5% CO2 for 24 hrs. The cells on the top side of the filter were then scraped away. The cells on bottom side of the filters were then fixed with ice-cold methanol for 10 min. The filters were rinsed with PBS and then stained with HarrisAE Hematoxylin stain for 5 min. and again rinsed with PBS.
The cells were then counted manually under high-power magnification (400×) in quadruplicate.

Row | Structure (SMILES) | inhibitory activity / specificity towards PKC (PKC) | proliferation of VSMCs (BrdU incorporation) (Porcine coronary VSMCs) | proliferation of aortic vascular endothelial cells (BrdU incorporation) [1] | DNA synthesis in human coronary artery vascular smooth muscle cells (BrdU incorporation) [2] | migration of human coronary vascular smooth muscle cells [3]
1 | O=C1NC(=O)c2cc(Nc3ccc(F)cc3)c(Nc3ccc(F)cc3)cc21 [CGP53353] | lower specificity towards PKC isozymes |  |  |  | 
2 | Cc1ccc(NC(=O)c2ccc(CN3CCN(C)CC3)cc2)cc1Nc1nccc(-c2cccnc2)n1 [STI-571] |  | inhibited the proliferation of VSMCs in a dose-dependent fashion | very minimal inhibitory effect | inhibits DNA synthesis | inhibits the migration of human coronary vascular smooth muscle cells in a dose-dependent fashion
3 | O=C1NC(=O)c2cc(Nc3ccccc3)c(Nc3ccccc3)cc21 [CGP5211] | some inhibitory activity |  |  |  | 
